# pKi: −log10 of the molar value.
# Columns and labels:
# JNK3 = JNK3 (Homo sapiens, UniProt P53779); conditions: cited from earlier work
# tumor necrosis factor-α = conditions: animal studies; cited from earlier work
# JNK-1, -2, and -3 = conditions: ATP-competitive reversible inhibitor; cited from earlier work
# phosphorylation of c-Jun [1] = assay: Phospho-c-Jun staining in primary neurons lacking SMN; assay type: cell-based, mice; conditions: neurons lacking SMN (siRNA-Smn), vs untreated with JNK inhibitor
# Procedure: (§1) Primary neurons transfected with scrambled siRNA (Control) and SMN specific siRNA (siRNA-Smn) were treated with DMSO or SP600125 after 36 h (post-transfection). Neurons were incubated for additional 60 h, fixed and stained with antibodies to Tubulin and phospho-c-Jun. Stained neurons were examined by confocal microscopy. To determine whether JNK activity is required for neurodegeneration, the effect of JNK inhibitor (SP600125) was examine on degeneration of neurons caused by SMN-deficiency. […] The knockdown of SMN neurons treated with solvent (DMSO) results in degeneration of neurons as expected. […] To determine whether the neuroprotection is a result of JNK inhibition achieved by treatment of SP600125, the phosphorylation of c-Jun was examined. […] To determine whether activation of JNK is normal in neurons treated with siRNA and JNK inhibitor, phospho-JNK was examined because JNK is activated by phosphorylation.
# CD4+ CD8+ thymocytes = conditions: animal studies; cited from earlier work
# [2] = test system: a range of kinases and enzymes; conditions: cited from earlier work
# phosphorylation of c-Jun [3] = conditions: in cells; cited from earlier work
# phospho-JNK = assay: Phospho-JNK staining in primary neurons lacking SMN; assay type: cell-based, mice; conditions: neurons treated with siRNA+SP600125
# Procedure: as §1, with “phospho-JNK.” for “phospho-c-Jun.”
# Primary neurons = assay: Degeneration of primary neurons transfected with siRNA-Smn or scrambled siRNA (tubulin staining, confocal microscopy); assay type: cell-based, mice
# Procedure: as §1, with “Primary neurons transfected with scrambled siRNA (Control) and SMN specific siRNA (siRNA-Smn) were treated with DMSO or SP600125 after 36 h (post-transfection). Neurons were incubated for additional 60 h, fixed and stained with antibodies to Tubulin and phospho-JNK. Stained neurons were examined by confocal microscopy. Primary” for “Primary”
# Sequence of JNK3 (P53779 whole entry, species assumed): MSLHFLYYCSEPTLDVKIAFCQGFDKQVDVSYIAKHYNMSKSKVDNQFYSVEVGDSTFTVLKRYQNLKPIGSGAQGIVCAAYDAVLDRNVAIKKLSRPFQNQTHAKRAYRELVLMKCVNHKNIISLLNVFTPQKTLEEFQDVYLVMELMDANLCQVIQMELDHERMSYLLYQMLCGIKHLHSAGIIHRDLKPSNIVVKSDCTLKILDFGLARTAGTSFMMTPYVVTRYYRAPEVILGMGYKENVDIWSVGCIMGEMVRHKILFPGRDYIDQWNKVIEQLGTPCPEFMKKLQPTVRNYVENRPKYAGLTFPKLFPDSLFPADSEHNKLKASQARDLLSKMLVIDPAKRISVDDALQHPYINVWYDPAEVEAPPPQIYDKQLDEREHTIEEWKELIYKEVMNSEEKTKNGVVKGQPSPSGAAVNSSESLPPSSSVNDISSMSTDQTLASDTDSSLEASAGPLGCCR
compound,measurement,setting,value
"O=C1c2c(CCCCCNc3ccccc3)cccc2-c2n[nH]c3cccc1c23 [7-(5-7V-Phenylaminopentyl)-2H-anthra[1,9-cd]pyrazol-6-one]",JNK3 selectivity,JNK3,selective inhibitors of JNK3
"Cc1ccc(OCCCCCNc2cccc3c2C(=O)c2cccc4[nH]nc-3c24)cc1 [7-(5-(p-Tolyloxy)pentyl)amino-2H-anthra[1,9-cd]pyrazol-6-one]",JNK3 selectivity,JNK3,selective inhibitors of JNK3
"O=C(NCCCCCCCNc1cccc2c1C(=O)c1cccc3[nH]nc-2c13)c1ccccc1 [7-(7-7V-Benzoylaminoheptyl)amino-2H-anthra[1,9-cd]pyrazol-6-one]",JNK3 selectivity,JNK3,selective inhibitors of JNK3
"O=C1c2ccccc2-c2n[nH]c3cccc1c23 [SP600125, Anthra[1,9-cd]pyrazol-6(2H)-on]",bacterial lipopolysaccharide-induced expression of tumor necrosis factor-α,tumor necrosis factor-α,inhibited
same,pKi,"JNK-1, -2, and -3",6.72
same,phosphorylation of c-Jun,phosphorylation of c-Jun [1],marked reduction in the phosphorylation of c-Jun
same,anti-CD3-induced apoptosis of CD4+ CD8+ thymocytes,CD4+ CD8+ thymocytes,prevented
same,selectivity vs. a range of kinases and enzymes tested,[2],> 20 fold
same,inhibition of the phosphorylation of c-Jun,phosphorylation of c-Jun [3],dose-dependent inhibition
same,phospho-JNK (JNK activation),phospho-JNK,presence of phospho-JNK
same,neuron degeneration in control experiments,"Primary neurons; control neurons, SP600125",did not cause neuron degeneration
same,degeneration of neurons caused by SMN-deficiency,"Primary neurons; neurons transfected with siRNA-Smn, inhibitor added 36 h post-transfection, additional 60 h, vs solvent (DMSO)",marked reduction in degeneration
